The target of assay [1] is T1, Human fibrinogen receptor (αIIb β3) (Homo sapiens, UniProt P05106+P08514).
T1 construct: Human fibrinogen receptor (αIIb β3) was purified from outdated platelets; from tissue; host or cells: outdated human platelets
Briefly: Purified IIb/IIIa receptor assay (solid phase receptor assay, biotinylated vitronectin competition). To be noted: inhibition of 50% of the maximum binding of biotinylated vitronectin; 1 nM labeled ligand, 2 hours, room temperature, highest concentration of test compound 1.0×10^-4 M. The source says: PURIFIED IIb/IIIa RECEPTOR ASSAY Human fibrinogen receptor (αIIb β3) was purified from outdated platelets. (Pytela, R., Pierschbacher, […]., Suzuki, S., and […] acid adhesion receptors", Methods in Enzymology 144(1987):475-489.) Human vitronectin was purified from fresh frozen plasma as described in Yatohgo, T., Izumi, M., Kashiwagi, H., and Hayashi, M., "Novel purification of vitronectin from human plasma by heparin affinity chromatography," Cell Structure and Function 13(1988):281-292. Biotinylated human vitronectin was prepared by coupling NHS-biotin from Pierce Chemical Company (Rockford, Ill.) to purified vitronectin as previously described. (Charo, […]., Phillips, D. R., Hsu, M. A., Scarborough, R. M., "Inhibition of fibrinogen binding to GP IIb/IIIa by a GP IIIa peptide", J. Biol. Chem. 266(3)(1991):1415-1421.) Assay buffer, OPD substrate tablets, and RIA grade BSA were obtained from Sigma (St. Louis, Mo.). Anti-biotin antibody was obtained from Calbiochem (La Jolla, Calif.). Linbro microtiter plates were obtained from Flow Labs (McLean, Va.). ADP reagent was obtained from Sigma (St. Louis, Mo.). Solid Phase Receptor Assays This assay is essentially the same reported in […]., Bader, R., Byers-Ward, […]., Plow, E. F. and Ruggeri, Z. M., "Increased surface expression of the membrane glycoprotein IIb/IIIa complex induced by platelet activation: Relationships to the binding of fibrinogen and platelet aggregation", Blood 70(1987):475-483. The purified human fibrinogen receptor (αIIb β3) was diluted from stock solutions to 1.0 μg/mL in Tris-buffered saline containing 1.0 mM Ca^++, Mg^++, and Mn^++, pH 7.4 (TBS^+++). The diluted receptor was immediately transferred to Linbro microtiter plates at 100 μL/well (100 ng receptor/well). The plates were sealed and incubated overnight at 4° C. to allow the receptor to bind to the wells. All remaining steps were at room temperature. The assay plates were emptied and 200 μL of 1% RIA grade BSA in TBS^+++ (TBS^+++ /BSA) were added to block exposed plastic surfaces. Following a 2 hour incubation, the assay plates were washed with TBS^+++ using a 96 well plate washer. Logarithmic serial dilution of the test compound and controls were made starting at a stock concentration of 2 mM and using 2 nM biotinylated vitronectin in TBS^+++ /BSA as the diluent. This premixing of labeled ligand with test (or control) ligand, and subsequent transfer of 50 μL aliquots to the assay plate was carried out with a CETUS Propette robot; the final concentration of the labeled ligand was 1 nM and the highest concentration of test compound was 1.0×10^-4 M. The competition occurred for two hours after which all wells were washed with a plate washer as before. Affinity purified horseradish peroxidase labeled goat antibiotin antibody was diluted 1:3000 in TBS^+++ /BSA and 125 μL were added to each well. After 30 minutes, the plates were washed and incubated with […]/H2 O2 substrate in 100 mM/L citrate buffer, pH 5.0. The plate was read with a microtiter plate reader at a wavelength of 450 nm and when the maximum-binding control wells reached an absorbance of about 1.0, the final A450 were recorded for analysis. The data were analyzed using a macro written for use with the EXCELTM spreadsheet program. The mean, standard deviation, and %CV were determined for duplicate concentrations. The mean A450 values were normalized to the mean of four maximum-binding controls (no competitor added)(B-MAX). The normalized values were subjected to a four parameter curve fit algorithm, [Robard et al., Int.

For assay [2], the target named is T2, Human vitronectin receptor (αv β3) (Homo sapiens, UniProt P05106+P06756).
T2 construct: Human vitronectin receptor(αv β3) was purified from human placenta; from tissue; host or cells: human placenta
Briefly: Vitronectin adhesion assay (solid phase receptor assay, biotinylated vitronectin competition). In kind it is binding. The following applies: inhibition of 50% of the maximum binding of biotinylated vitronectin; 1 nM labeled ligand, 2 hours, room temperature, highest concentration of test compound 1.0×10^-4 M; read-out: AvB3 IC50. As to the method: VITRONECTIN ADHESION ASSAY Human vitronectin receptor(αv β3) was purified from human placenta as previously described [Pytela et al., Methods in Enzymology, 144:475-489 (1987)). Human vitronectin was purified from fresh frozen plasma as previously described [Yatohgo et al., Cell Structure and Function, 13:281-292 (1988)]. Biotinylated human vitronectin was prepared by coupling NHS-biotin from Pierce Chemical Company (Rockford, Ill.) to purified vitronectin as previously described [Charo et al., J. Biol. Chem., 266(3):1415-1421 (1991)]. Assay buffer, OPD substrate tablets, and RIA grade BSA were obtained from Sigma (St. Louis, Mo.). Anti-biotin antibody was obtained from Calbiochem (La Jolla, Calif.). Linbro microtiter plates were obtained from Flow Labs (McLean, Va.). ADP reagent was obtained from Sigma (St. Louis, Mo.). Solid Phase Receptor Assays This assay was essentially the same as previously reported [Niiya et al., Blood, 70:475-483 (1987)]. The purified human vitronectin receptor (αv β3) was diluted from stock solutions to 1.0 μg/mL in Tris-buffered saline containing 1.0 mM Ca^++, Mg^++, and Mn^++, pH 7.4 (TBS^+++). The diluted receptor was immediately transferred to Linbro microtiter plates at 100 μL/well (100 ng receptor/well). The plates were sealed and incubated overnight at 4° C. to allow the receptor to bind to the wells. All remaining steps were at room temperature. The assay plates were emptied and 200 μL of 1% RIA grade BSA in TBS^+++ (TBS^+++ /BSA) were added to block exposed plastic surfaces. Following a 2 hour incubation, the assay plates were washed with TBS^+++ using a 96 well plate washer. Logarithmic serial dilution of the test compound and controls were made starting at a stock concentration of 2 mM and using 2 nM biotinylated vitronectin in TBS^+++ /BSA as the diluent. This premixing of labeled ligand with test (or control) ligand, and subsequent transfer of 50 μL aliquots to the assay plate was carried out with a CETUS Propette robot; the final concentration of the labeled ligand was 1 nM and the highest concentration of test compound was 1.0×10^-4 M. The competition occurred for two hours after which all wells were washed with a plate washer as before. Affinity purified horseradish peroxidase labeled goat antibiotin antibody was diluted 1:3000 in TBS^+++ /BSA and 125 μL were added to each well. After 30 minutes, the plates were washed and incubated with OPD/H2 O2 substrate in 100 mM/L Citrate buffer, pH 5.0. The plate was read with a microtiter plate reader at a wavelength of 450 nm and when the maximum-binding control wells reached an absorbance of about 1.0, the final A450 were recorded for analysis. The data were analyzed using a macro written for use with the EXCEL™ spreadsheet program. The mean, standard deviation, and %CV were determined for duplicate concentrations. The mean A450 values were normalized to the mean of four maximum-binding controls (no competitor added)(B-MAX). The normalized values were subjected to a four parameter curve fit algorithm [Rodbard et al., Int.

Structures can show the parent of a compound that is named as a salt. Some results are limits rather than exact numbers.

What is called IC50 is the point on the concentration scale where inhibition reaches its midpoint. On to `N=C(N)Nc1cccc(C(=O)Nc2cccc(C(CC(=O)O)c3ccccc3)c2)c1` (stereo not drawn) [Example 2, 3-[[[3-[(aminoiminomethyl)amino]phenyl]carbonyl]amino]-β-phenylbenzenepropanoic acid, trifluoroacetate salt], for which the half-inhibitory concentration (IC50) was found to be 3.76 µM in assay [1] and 0.499 µM in assay [2].
With `NC(=O)Nc1cccc(C(=O)Nc2cccc(C(CC(=O)O)c3ccccc3)c2)c1` (stereo not drawn) [Example 5, 3-[[[3-[(aminocarbonyl)amino]phenyl]carbonyl]amino]-β-phenylbenzenepropanoic acid], the IC50 was determined as 21.6 µM in assay [1] and 15.3 µM in assay [2].
Taken in the same sequence, the figures for `NC(=O)Nc1cccc(S(=O)(=O)Nc2cccc(C(CC(=O)O)c3ccccc3)c2)c1` (stereo not drawn) [Example 8, 3-[[[3-[(aminocarbonyl)amino]phenyl]sulfonyl]amino]-β-phenylbenzenepropanoic acid] were 11.6 µM and 0.641 µM.
Taken in the same sequence, the figures for `NC(=S)Nc1cccc(S(=O)(=O)Nc2cccc(C(CC(=O)O)c3ccccc3)c2)c1` (stereo not drawn) [Example 10, 3-[[[3-[(aminothioxomethyl)amino]phenyl]sulfonyl]amino]-β-phenylbenzenepropanoic acid] were 5.54 µM and 0.144 µM.
As to `N=C(N)Nc1cccc(CNc2cccc(C(CC(=O)O)c3ccccc3)c2)c1` (stereo not drawn) [Example 11, 3-[[[3-[(aminoiminomethyl)amino]phenyl]methyl]amino]-β-phenylbenzenepropanoic acid, trifluoroacetate salt], the figures for the IC50 in assay [1] and in assay [2] were 2.44 µM and 0.554 µM, respectively.
The matching figures for `O=C(O)CC(c1ccccc1)c1cccc(NS(=O)(=O)c2cccc(NC(=O)NCc3ccccc3)c2)c1` (stereo not drawn) [Example 13, 3-[[[3-[[[(phenylmethyl)amino]carbonyl]amino]phenyl]sulfonyl]amino]-β-phenylbenzenepropanoic acid, monohydrate]: 11.8 µM and 0.163 µM.
Turning to `CC(C)(C)OC(=O)CC(c1ccccc1)c1cccc(NS(=O)(=O)c2cccc(NC(N)=NC#N)c2)c1` (stereo not shown) [Example 15], the IC50 stood at 1.36 µM in assay [1] and 0.0404 µM in assay [2].
The matching figures for `CCOC(=O)CCc1cccc(CNC(=O)c2cccc(C#N)c2)c1` [Example 19, ethyl 3-[[[[3-(cyano)phenyl]carbonyl]amino]methyl]benzenepropanoate, diacetate salt]: 57.6 µM and greater than 100 µM.
Taken in the same sequence, the figures for `N=C(N)c1cccc(C(=O)NCc2cccc(CCC(=O)O)c2)c1` [Example 23, 3-[[[[3-(aminoiminomethyl)phenyl]carbonyl]amino]methyl]benzenepropanoic acid, trifluoroacetate salt] were 4.35 µM and greater than 10 µM.
The matching figures for `CCOC(=O)CCc1cccc(CNC(=O)c2cccc(NC(N)=O)c2)c1` [Example 28, ethyl 3-[[[[3-[(aminocarbonyl)amino]phenyl]carbonyl]amino]methyl]benzenepropanoate]: greater than 100 µM and greater than 100 µM.
`NC(=O)Nc1cccc(C(=O)NCc2cccc(CCC(=O)O)c2)c1` [Example 29, 3-[[[[3-[(aminocarbonyl)amino]phenyl]carbonyl]amino]methyl]benzenepropanoic acid]: the figures for the IC50 in assay [1] and in assay [2] were 32 µM and 9.37 µM, respectively.
Taken in the same sequence, the figures for `CCOC(=O)CCc1cccc(CNC(=O)c2cccc(NC(=O)NCc3ccccc3)c2)c1` [Example 30, ethyl 3-[[[[3-[[[(phenylmethyl)amino]carbonyl]amino]phenyl]carbonyl]amino]methyl]benzenepropanoate] were greater than 100 µM and greater than 100 µM.
Taken in the same sequence, the figures for `O=C(O)CCc1cccc(CNC(=O)c2cccc(NC(=O)NCc3ccccc3)c2)c1` [Example 31, 3-[[[[3-[[[(phenylmethyl)amino]carbonyl]amino]phenyl]carbonyl]amino]methyl]benzenepropanoic acid] were 5.36 µM and 3.57 µM.
Taken in the same sequence, the figures for `CCOC(=O)CCc1cccc(CNC(=O)c2cccc(NC(=N)N)c2)c1` [Example 34, ethyl 3-[[[[3-[(aminoiminomethyl)amino]phenyl]carbonyl]amino]methyl]benzenepropanoate, trifluoroacetate salt] were 66.1 µM and 2.93 µM.
For `N=C(N)Nc1cccc(C(=O)NCc2cccc(CCC(=O)O)c2)c1` [Example 35, 3-[[[[3-[(aminoiminomethyl)amino]phenyl]carbonyl]amino]methyl]benzenepropanoic acid, trifluoroacetate salt], the IC50 in assay [1] is 6.08 µM; in assay [2], 0.183 µM.
The matching figures for `N=C(N)Nc1cccc(C(=O)Nc2cccc(CCC(=O)O)c2)c1` [Example 36, 3-[[[3-[(aminoiminomethyl)amino]phenyl]carbonyl]amino]benzenepropanoic acid, trifluoroacetate salt]: 72.4 µM and 13.7 µM.
For `CCOC(=O)CC(c1ccccc1)c1cccc(CNC(=O)c2cccc(NC(=N)N)c2)c1` (stereo not drawn) [Example 37, ethyl 3-[[[[3-[(aminoiminomethyl)amino]phenyl]carbonyl]amino]methyl]-β-phenylbenzenepropanoate, trifluoroacetate salt], the IC50 in assay [1] is 79 µM; in assay [2] it was 32.2 µM.

For the origin of these results see patent US5773646A, “Meta-substituted phenylene derivatives” (G. D. Searle & Co., priority 1997, dated 1998).
